# According to article PMC5218480 (PLoS ONE, 2017):
# Read-outs that look alike come from different tables or passages of the source.
# Columns and labels:
# [1] = test system: MOLM-13 cells; assay: Cell viability assay (CellTiter-Glo), single agent and combination; details: read-out: IC50 cell viability MOLM-13; 72 hours
# Protocol: (§4) MV-4-11, Kasumi-1, and HL-60 AML cell lines were all obtained from ATCC. MOLM-13 and NB-4 cell lines were obtained from DSMZ. […] The identity of each cell line was validated and documented by the suppliers. All experiments were performed with cells maintained at low passage numbers.
# (§5) Compounds and/or solvent dimethyl sulfoxide (DMSO) were added at the same time using an HP D300 digital dispenser (Hewlett Packard) in triplicate or quadruplicate and incubated for 72 hours at 37°C. Viability was measured by adding 25 μL CellTiter-Glo (Promega), incubating for 10 minutes, and measuring luminescence on a SpectraMax (Molecular Devices). […] CI < 1 indicates synergism, CI = 1 indicates additivity, and CI > 1 indicates antagonism.
# [2] = target: T1, HDAC5 (Homo sapiens, UniProt Q9UQL6); assay: HDAC enzyme assay, in vitro biochemical; details: maximum concentration tested of 20 μM
# T1 construct: purchased BPS Biosciences
# Protocol: (§1) In vitro biochemical assays were performed as described previously. Specifically, compounds were dissolved and diluted in assay buffer (50 mM HEPES, pH 7.4, 100 mM KCl, 0.001% Tween-20, 0.05% BSA, and 20 μM Tris (2-carboxyethyl) phosphine) to 6-fold the final concentration. […] The amount of substrate (acetyl-lysine tripeptide) used for each enzyme was equal to the Michaelis constant (Km), as determined by a titration curve. Substrate was diluted in assay buffer to 6-fold of the final concentration with 0.3 μM sequencing grade trypsin (Sigma-Aldrich). The substrate/trypsin mix was added to the enzyme/compound mix and the plate was shaken for 5 seconds and then placed into a SpectraMax M5 microtiter (Molecular Devices) plate reader. The enzymatic reaction was monitored over 30 minutes for release of […] after deacetylation of the lysine side chain in the peptide substrate, and the linear rate of the reaction was calculated.
# (§2) biochemical assay for HDAC4, HDAC5, HDAC6, HDAC7, HDAC8, HDAC9 inhibition by ACY-1035.
# (§3) (1 picture or pasted object on this page, not shown here)
# [3] = target: T2, HDAC6 (Homo sapiens, UniProt Q9UBN7); assay: HDAC enzyme assay, in vitro biochemical; details: maximum concentration tested of 20 μM
# T2 construct: purchased BPS Biosciences
# T2 sequence (Q9UBN7 1-1215): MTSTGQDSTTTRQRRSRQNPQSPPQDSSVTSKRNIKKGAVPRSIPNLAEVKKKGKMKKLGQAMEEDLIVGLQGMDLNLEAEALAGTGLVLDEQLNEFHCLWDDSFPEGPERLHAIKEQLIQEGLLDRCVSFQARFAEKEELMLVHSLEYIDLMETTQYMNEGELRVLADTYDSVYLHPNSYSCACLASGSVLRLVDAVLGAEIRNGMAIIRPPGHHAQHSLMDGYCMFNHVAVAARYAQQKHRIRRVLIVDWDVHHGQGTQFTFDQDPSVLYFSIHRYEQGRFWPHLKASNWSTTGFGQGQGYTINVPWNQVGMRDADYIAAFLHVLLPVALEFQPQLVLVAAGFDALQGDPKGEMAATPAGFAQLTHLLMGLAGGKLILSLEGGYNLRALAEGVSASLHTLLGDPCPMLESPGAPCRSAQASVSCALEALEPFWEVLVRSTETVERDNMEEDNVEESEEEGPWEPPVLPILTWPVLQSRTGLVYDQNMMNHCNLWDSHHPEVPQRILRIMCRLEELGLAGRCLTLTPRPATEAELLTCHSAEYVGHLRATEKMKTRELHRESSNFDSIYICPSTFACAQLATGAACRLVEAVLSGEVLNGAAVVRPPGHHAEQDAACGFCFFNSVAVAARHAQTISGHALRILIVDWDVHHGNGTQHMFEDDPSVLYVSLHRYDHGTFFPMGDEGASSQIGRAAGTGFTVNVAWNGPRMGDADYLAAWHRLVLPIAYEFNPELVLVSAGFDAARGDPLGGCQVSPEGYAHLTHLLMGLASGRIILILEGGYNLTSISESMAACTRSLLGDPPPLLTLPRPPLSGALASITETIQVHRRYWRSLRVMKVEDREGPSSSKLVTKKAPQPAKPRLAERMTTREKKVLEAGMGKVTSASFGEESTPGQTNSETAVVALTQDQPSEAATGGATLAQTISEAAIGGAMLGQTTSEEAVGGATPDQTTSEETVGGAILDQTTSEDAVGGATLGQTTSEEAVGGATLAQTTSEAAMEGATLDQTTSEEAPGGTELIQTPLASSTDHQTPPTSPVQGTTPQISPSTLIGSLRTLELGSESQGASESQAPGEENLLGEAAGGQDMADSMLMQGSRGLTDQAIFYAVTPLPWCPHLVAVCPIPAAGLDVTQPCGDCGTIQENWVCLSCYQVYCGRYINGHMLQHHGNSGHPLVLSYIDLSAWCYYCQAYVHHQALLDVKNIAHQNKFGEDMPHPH
# Protocol: as §1, §2, §3
# [4] = target: T3, HDAC4 (Homo sapiens, UniProt P56524); assay: HDAC enzyme assay, in vitro biochemical; details: maximum concentration tested of 20 μM
# T3 construct: purchased BPS Biosciences
# Protocol: as §1, §2, §3
# [5] = target: T4, HDAC9 (Homo sapiens, UniProt Q9UKV0); assay: HDAC enzyme assay, in vitro biochemical; details: maximum concentration tested of 20 μM
# T4 construct: purchased BPS Biosciences
# Protocol: as §1, §2, §3
# [6] = test system: HL-60 cells; assay: Cell viability assay (CellTiter-Glo); details: read-out: IC50 cell viability HL-60; 72 hours
# Protocol: as §4, §5
# [7] = test system: MV-4-11 and HL-60 cells; assay: Flow cytometry, surface level of CD11b (differentiation); format: cell-based, human; details: single agent, 72 hours
# Protocol: All compounds and/or solvent DMSO were added concurrently at the indicated doses. Flow cytometry was performed to measure surface level of CD11b, cell cycle distribution, and induction of apoptosis. CD11b and apoptosis were analyzed on a FC500 flow cytometer ([…]) and cell cycle profiled on an Attune NxT (Life Technologies).
# The frequency of CD11b positive cells out of total viable cells identified by forward and side scatter profile was quantified.
# [8] = test system: five human AML cell lines (MV-4-11, Kasumi-1, HL-60, MOLM-13, NB-4); assay: Cell viability assay, summary over five human AML cell lines; details: 72 hours
# Protocol: as §4, §5
# T1 sequence (Q9UQL6 whole entry): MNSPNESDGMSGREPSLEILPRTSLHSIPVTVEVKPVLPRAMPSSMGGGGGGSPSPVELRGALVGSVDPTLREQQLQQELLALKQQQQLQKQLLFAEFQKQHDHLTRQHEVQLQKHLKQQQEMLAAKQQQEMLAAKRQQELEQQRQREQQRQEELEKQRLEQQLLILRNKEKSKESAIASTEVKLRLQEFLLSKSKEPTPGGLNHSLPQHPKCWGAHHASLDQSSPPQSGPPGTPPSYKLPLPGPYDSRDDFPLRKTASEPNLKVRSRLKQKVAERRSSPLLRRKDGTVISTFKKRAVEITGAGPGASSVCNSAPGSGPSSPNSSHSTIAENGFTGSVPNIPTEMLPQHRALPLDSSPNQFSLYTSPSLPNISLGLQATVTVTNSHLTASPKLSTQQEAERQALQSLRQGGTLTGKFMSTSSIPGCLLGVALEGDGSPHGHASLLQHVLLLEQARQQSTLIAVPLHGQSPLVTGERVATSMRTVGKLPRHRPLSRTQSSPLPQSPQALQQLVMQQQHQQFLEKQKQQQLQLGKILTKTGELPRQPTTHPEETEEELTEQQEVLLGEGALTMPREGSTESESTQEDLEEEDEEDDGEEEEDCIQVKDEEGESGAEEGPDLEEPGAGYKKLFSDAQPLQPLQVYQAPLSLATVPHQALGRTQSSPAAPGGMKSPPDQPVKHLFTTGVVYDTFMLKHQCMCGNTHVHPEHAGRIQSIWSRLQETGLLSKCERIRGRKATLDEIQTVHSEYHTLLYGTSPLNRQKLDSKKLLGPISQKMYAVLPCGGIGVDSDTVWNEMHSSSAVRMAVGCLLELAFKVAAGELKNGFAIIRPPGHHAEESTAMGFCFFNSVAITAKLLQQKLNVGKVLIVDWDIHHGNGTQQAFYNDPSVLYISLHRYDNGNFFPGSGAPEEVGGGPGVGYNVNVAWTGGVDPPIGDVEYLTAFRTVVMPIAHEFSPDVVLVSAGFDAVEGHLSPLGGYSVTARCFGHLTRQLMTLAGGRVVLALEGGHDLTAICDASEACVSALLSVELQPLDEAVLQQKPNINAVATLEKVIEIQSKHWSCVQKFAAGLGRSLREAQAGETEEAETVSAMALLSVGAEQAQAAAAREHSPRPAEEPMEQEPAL
# T4 sequence (Q9UKV0 whole entry): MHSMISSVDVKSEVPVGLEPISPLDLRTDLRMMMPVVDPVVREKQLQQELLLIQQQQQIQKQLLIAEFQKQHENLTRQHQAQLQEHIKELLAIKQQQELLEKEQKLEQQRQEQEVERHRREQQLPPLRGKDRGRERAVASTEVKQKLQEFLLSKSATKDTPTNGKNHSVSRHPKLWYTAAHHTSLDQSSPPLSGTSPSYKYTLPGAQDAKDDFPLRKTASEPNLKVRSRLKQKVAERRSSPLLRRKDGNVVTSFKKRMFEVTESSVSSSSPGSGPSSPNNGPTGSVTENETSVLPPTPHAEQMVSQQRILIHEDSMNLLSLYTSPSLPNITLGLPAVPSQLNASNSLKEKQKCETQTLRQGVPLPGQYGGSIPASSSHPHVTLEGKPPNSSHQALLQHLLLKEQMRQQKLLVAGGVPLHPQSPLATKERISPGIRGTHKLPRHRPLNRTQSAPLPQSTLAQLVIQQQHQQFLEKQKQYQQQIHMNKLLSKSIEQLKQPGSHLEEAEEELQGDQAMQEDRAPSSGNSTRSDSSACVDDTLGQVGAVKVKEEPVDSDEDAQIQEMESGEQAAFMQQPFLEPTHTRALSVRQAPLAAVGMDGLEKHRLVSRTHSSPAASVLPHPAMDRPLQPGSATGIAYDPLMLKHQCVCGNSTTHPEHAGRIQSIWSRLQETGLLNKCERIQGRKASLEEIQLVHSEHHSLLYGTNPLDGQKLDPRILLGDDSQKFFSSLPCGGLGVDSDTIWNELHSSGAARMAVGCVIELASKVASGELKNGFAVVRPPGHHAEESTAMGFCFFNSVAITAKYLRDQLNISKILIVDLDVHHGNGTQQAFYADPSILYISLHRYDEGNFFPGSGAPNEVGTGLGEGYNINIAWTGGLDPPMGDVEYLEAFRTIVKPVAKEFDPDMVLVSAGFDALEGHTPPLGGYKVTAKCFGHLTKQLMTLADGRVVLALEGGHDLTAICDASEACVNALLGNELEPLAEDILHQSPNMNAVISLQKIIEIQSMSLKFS
# T3 sequence (P56524 whole entry): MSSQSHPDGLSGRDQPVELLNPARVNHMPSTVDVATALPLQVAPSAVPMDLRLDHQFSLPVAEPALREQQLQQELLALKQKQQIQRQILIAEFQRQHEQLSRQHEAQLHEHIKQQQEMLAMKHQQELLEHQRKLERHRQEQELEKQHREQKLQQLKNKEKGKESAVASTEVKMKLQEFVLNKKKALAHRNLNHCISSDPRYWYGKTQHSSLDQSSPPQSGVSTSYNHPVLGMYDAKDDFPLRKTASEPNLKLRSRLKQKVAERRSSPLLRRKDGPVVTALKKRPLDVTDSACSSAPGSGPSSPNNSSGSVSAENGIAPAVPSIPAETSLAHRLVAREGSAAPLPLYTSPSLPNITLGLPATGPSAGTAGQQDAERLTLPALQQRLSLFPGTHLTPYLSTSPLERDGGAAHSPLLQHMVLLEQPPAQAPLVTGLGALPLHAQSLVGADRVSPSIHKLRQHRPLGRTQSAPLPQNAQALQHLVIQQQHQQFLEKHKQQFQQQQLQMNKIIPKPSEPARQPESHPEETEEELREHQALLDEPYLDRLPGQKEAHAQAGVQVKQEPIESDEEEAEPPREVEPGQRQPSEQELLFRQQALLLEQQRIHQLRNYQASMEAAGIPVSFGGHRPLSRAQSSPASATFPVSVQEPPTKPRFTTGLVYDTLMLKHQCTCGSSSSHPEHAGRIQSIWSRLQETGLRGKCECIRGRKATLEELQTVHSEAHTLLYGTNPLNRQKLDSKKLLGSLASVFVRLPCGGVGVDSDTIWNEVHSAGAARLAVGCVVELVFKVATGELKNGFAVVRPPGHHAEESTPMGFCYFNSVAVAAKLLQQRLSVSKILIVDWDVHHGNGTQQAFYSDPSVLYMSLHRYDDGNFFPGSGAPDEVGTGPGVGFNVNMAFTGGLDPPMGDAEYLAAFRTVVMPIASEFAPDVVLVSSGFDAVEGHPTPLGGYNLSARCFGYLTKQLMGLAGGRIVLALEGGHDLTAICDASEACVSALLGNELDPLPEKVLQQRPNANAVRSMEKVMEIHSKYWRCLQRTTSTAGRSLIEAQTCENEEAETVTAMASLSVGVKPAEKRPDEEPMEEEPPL
compound,measurement,setting,value
Nc1ccc(-c2cccs2)cc1NC(=O)c1ccc2c(c1)cc(C1CC1)n2CCN1CCOCC1 [ACY-1035],IC50,[1],2900 nM
same,inhibition of HDAC5,[2],did not inhibit
same,inhibition of HDAC6,[3],did not inhibit
same,inhibition of HDAC4,[4],did not inhibit
same,inhibition of HDAC9,[5],did not inhibit
same,IC50,[6],3300 nM
same,"differentiation, surface expression of CD11b",[7],dose-dependent induction of differentiation
same,IC50,"[8]; read-out: IC50 values cell viability, range, five human AML cell lines, both compounds",800 to 3300 nM
same,IC50,"[8]; read-out: average IC50 value, viability of AML cells, average of five AML cell lines",2600 nM
